The values below come from patent US7713979B2, “Cycloalkyl lactam derivatives as inhibitors of 11-beta-hydroxysteroid dehydrogenase 1” (Eli Lilly and Company, priority 2004, dated 2010).

Each structure is given as a SMILES string.

Sequence of recombinant human 11β-HSD type 1 enzyme (P28845 whole entry): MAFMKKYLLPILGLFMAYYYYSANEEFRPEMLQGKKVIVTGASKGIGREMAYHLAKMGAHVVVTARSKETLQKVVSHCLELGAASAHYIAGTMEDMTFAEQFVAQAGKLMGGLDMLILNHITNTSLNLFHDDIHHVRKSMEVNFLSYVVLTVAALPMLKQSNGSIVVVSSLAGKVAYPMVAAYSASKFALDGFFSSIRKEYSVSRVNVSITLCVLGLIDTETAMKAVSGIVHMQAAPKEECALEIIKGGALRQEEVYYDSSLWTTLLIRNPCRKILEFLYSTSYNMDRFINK

The target in one experiment is recombinant human 11β-HSD type 1 enzyme (Homo sapiens, UniProt P28845). As to the kind of experiment: 11β-HSD type 1 enzyme assay (NADPH fluorescence). Format: biochemical. Conditions: three hour incubation at room temperature. On the procedure:
11β-HSD Type 1 Enzyme Assay Human 11β-HSD type 1 activity is measured by assaying NADPH production by fluorescence assay. Solid compounds are dissolved in DMSO to a concentration of 10 mM. Twenty microliters of each are then transferred to a column of a 96-well polypropylene Nunc plate where they are further diluted 50-fold followed by subsequent two-fold titration, ten times across the plate with additional DMSO using a Tecan Genesis 200 automated system. Plates are then transferred to a Tecan Freedom 200 system with an attached Tecan Temo 96-well head and an Ultra 384 plate reader. Reagents are supplied in 96-well polypropylene Nunc plates and are dispensed individually into black 96-well Molecular Devices High Efficiency assay plates (40 μL/well capacity) in the following fashion: 9 μL/well of substrate (2.22 mM NADP, 55.5 μM […], 10 mM Tris, 0.25% Prionex, 0.1% Triton X100), 3 μL/well of water to compound wells or 3 μL to control and standard wells, 6 μL/well recombinant human 11β-HSD type 1 enzyme, 2 μL/well of compound dilutions. For ultimate calculation of percent inhibition, a series of wells are added that represent assay minimum and maximum: one set containing substrate with 667 μM carbenoxolone (background), and another set containing substrate and enzyme without compound (maximum signal). Final DMSO concentration is 0.5% for all compounds, controls and standards. Plates are then placed on a shaker by the robotic arm of the Tecan for 15 seconds before being covered and stacked for a three hour incubation period at room temperature. Upon completion of this incubation, the Tecan robotic arm removes each plate individually from the stacker and places them in position for addition of 5 μL/well of a 250 μM carbenoxolone solution to stop the enzymatic reaction. Plates are then shaken once more for 15 seconds then placed into an Ultra 384 microplate reader (355EX/460EM) for detection of NADPH fluorescence.
As for `O=C1C(Cc2ccc(-c3ccncc3)cc2Cl)CCN1C1CCCCC1` (centres unmarked), the IC50 was 384 nM. Same read-out and setting: in the case of `CC1CCCCC1N1CCC(Cc2c(Cl)cc(-c3ccncc3)cc2Cl)C1=O` (centres unmarked) it was 565 nM; in that of `O=C1C(Cc2ccc(Cl)cc2Cl)CCN1C1CCC(O)CC1` (centres unmarked), 378 nM; in that of `O=C1C(Cc2ccc(-c3cccnc3)cc2Cl)CCCN1C1CCCCC1` (centres unmarked), 494 nM. Still for that read-out and setting: in the case of `O=C1C(Cc2c(F)cccc2Cl)CCCN1C1CCCCC1` (centres unmarked) it was 879 nM. Take `O=C1C(Cc2c(Cl)cc(Cl)cc2Cl)CCN1C1CCC(O)CC1` (centres unmarked) [drawing 379]: the IC50 was 230 nM. On to `CC1CCCCC1N1CCC(Cc2ccc(-c3cccnc3)cc2Cl)C1=O` (centres unmarked) [drawing 383], for which the IC50 amounted to 273 nM.

The next experiment has as its system cortisone to cortisol conversion (11β-HSD type 1). Put plainly: Acute In Vivo Cortisone Conversion Assay. Conditions: mice dosed orally, subcutaneous cortisone challenge 30 mg/kg, serum cortisol by LC-MS/MS. On the procedure:
Acute In Vivo Cortisone Conversion Assay
In general, compounds are dosed orally into mice, the mice are challenged with a subcutaneous injection of cortisone at a set timepoint after compound injection, and the blood of each animal is collected some time later. Separated serum is then isolated and analyzed for levels of cortisone and cortisol by LC-MS/MS, followed by calculation of mean cortisol and percent inhibition of each dosing group. Specifically, male C57BL/6 mice are obtained from Harlan Sprague Dawley at average weight of 25 grams. Exact weights are taken upon arrival and the mice randomized into groups of similar weights. Compounds are prepared in 1% w-w HEC, 0.25% w-w polysorbate 80, 0.05% w-w Dow Coming antifoam #1510-US at various doses based on assumed average weight of 25 grams. Compounds are dosed orally, 200 μl per animal, followed by a subcutaneous dose, 200 μl per animal, of 30 mg/kg cortisone at 1 to 24 hours post compound dose. At 10 minutes post cortisone challenge, each animal is euthanized for 1 minute in a CO2 chamber, followed by blood collection via cardiac puncture into serum separator tubes. Once fully clotted, tubes are spun at 2500×g, 4° C. for 15 minutes, the serum transferred to wells of 96-well plates (Coming Inc, Costar #4410, cluster tubes, 1.2 ml, polypropylene), and the plates are frozen at −20° C. until analysis by LC-MS/MS. For analysis, serum samples are thawed and the proteins are precipitated by the addition of acetonitrile containing d4-cortisol internal standard. Samples are vortex mixed and centrifuged. The supernatant is removed and dried under a stream of warm nitrogen. Extracts are reconstituted in methanol/water (1:1) and injected onto the LC-MS/MS system. The levels of cortisone and cortisol are assayed by selective reaction monitoring mode following positive ACPI ionization on a triple quadrupole mass spectrophotometer. […] Examples 91, 135, 119, 15, and 99 were active in the Acute In Vivo Cortisone Conversion Assay.
For the compound `O=C1C(Cc2ccc(Cl)cc2Cl)CCN1[C@H]1CC[C@H](O)CC1` (relative stereo) [Example 15, 3-(2,4-Dichloro-benzyl)-1-(trans-4-hydroxy-cyclohexyl)-pyrrolidin-2-one], the “activity in the Acute In Vivo Cortisone Conversion Assay” value (shortened to “activity”) is recorded as “active”. Same read-out and setting: in the case of `CC1CCCCC1N1CCC(Cc2c(F)cccc2Cl)C1=O` (centres unmarked) [Example 65] it was “inactive”. For `COc1ccc(Cl)c(CC2CCN(C3CCCCC3)C2=O)c1Cl` (centres unmarked) [Example 69], the “activity” value is “inactive”. Consider `Cl.O=C1C(Cc2ccc(-c3ccncc3)cc2Cl)CCN1C1CCCCC1` (centres unmarked) [Example 91], for which the “activity” value is reported as “active”.

`CC1CCCCC1N1CCC(Cc2ccc(-c3cccnc3)cc2Cl)C1=O` (centres unmarked) [Example 99]: the “activity” value is “active”. For the compound `CC1CCCCC1N1CCC(Cc2c(Cl)cc(-c3ccncc3)cc2Cl)C1=O.Cl` (centres unmarked) [Example 119], the “activity” value was “active”. As for `O=C1C(Cc2c(Cl)cc(Cl)cc2Cl)CCN1C1CCC(O)CC1` (centres unmarked) [Example 135], the “activity” value is recorded as “active”.
